Reference: patent US20260055110A1 (Azura Ophthalmics Ltd., priority 2021, published 2026)

How the values were obtained:
[1] = Aqueous Hydrolysis Stability Assay; settings: DPBS pH 7.4, 37° C.
Protocol: Example 2: Aqueous Hydrolysis Stability Assay
Determination of aqueous stability of the test compounds was performed using UPLC-MS. A test compound 10 mM stock solution was prepared in DMSO. 10 μL of the DMSO stock solution was dissolved in 990 μL of DPBS pH 7.4 buffer to prepare a 100 μM stock. A further dilution was made by dissolving 75 μl of 100 μM stock into 225 μL of DPBS. Final DMSO concentration is 0.25%. The solution is kept at 37° C. and injected without delay into the LCMS (Waters Xevo TQ-). Additional injections were performed at appropriate time points.
Half-life (T1/2) of the parent conjugate was calculated using the peak area or measured concentration of the parent conjugate at each time point in the linear region of the log—linear plot.

[2] = tested on: Rabbit Cornea Esterase; assay: Rabbit Cornea Homogenate Stability Assay (Rabbit Cornea Esterase Assay); type: in vitro ADME
Protocol: Example 1: Rabbit Cornea Homogenate Stability Assay […]
Three to four rabbit corneas (e.g., New Zealand Whites (NZW) or Dutch Belted (DB)) of approx. 50 mg each were sliced and scraped with a scalpel and tweezers until reduced to small (1-3 mm), thin pieces. These were transferred into a glass vial containing approximately 2 mL of cold DPBS pH 7.4 buffer.
Sample was cooled intermittently on ice and shear homogenized for 3 minutes, then centrifuged for 3 min at 13,000 g. The supernatant was pipetted off into a vial, and total protein concentration determined at 280 nm. Sample was stored at −78° C.
10 mM Compound DMSO stocks were diluted to 10 μM in a glass vial: 10 μL of 10 mM Compound stock was added to 9,990 μl 50 mM DPBS, pH 7.4 buffer. Esterase homogenate was diluted to 300 ng/μl and 900 ng/μL in DPBS.
A heater shaker was set to 37° C. Into a suitable 96 well plate (Run Plate), 70 μL of 300 or 900 ng/μl esterase homogenate was pipetted into two rows as compounds were analyzed in duplicate (2 min, 5 min, 10 min, 20 min and 45 min). The plate was sealed and then warmed at 37° C. for 5 min.
Two 96 deep-well plates were put on ice (Kill Plates). To these, 990 μL of 50:50 MeCN—H2O were added to required rows, labelled 0 min 2 min, 5 min, 10 min, 20 min and 45 min. The plates were covered to minimize evaporation.
To both rows of the Run Plate, 70 μL of 10 μM compound solution was added. At the appropriate time point, 10 μL of the assay mixture was added to the matching kill plate well containing 990 μL of 50:50 cold MeCN—H2O. Samples were analyzed as soon as practicable by UPLC-MS (Waters Xevo TQ-S).
A heater shaker was set to 37° C. Into a suitable 96 well plate (Run Plate), 80 μL of 300 or 900 ng/μL esterase homogenate was pipetted into two rows as compounds were analyzed in duplicate (2 min, 5 min, 10 min, 20 min and 45 min). The plate was sealed and then warmed at 37° C. for 5 min.
Two 96 shallow-well plates were placed on ice (Kill Plates). To these, 180 μL of 60:40 MeCN-H2O+0.1% acetic acid are added to required rows. The plates were sealed to minimize evaporation.
To both rows of the Run Plate, 80 μL of 10 μM compound solution was added. At the appropriate time point, 20 μL of the assay mixture was added to the matching kill plate well containing 180 μL of 60:40 cold MeCN-H2O+0.1% acetic acid. For lipoic acid analysis, samples were analyzed as soon as practicable by LCMS (Waters Xevo TQ-S). For parent conjugate and parent analysis the samples are diluted further 1 in 10: 20 μL supernatant is added to 180 μL of 50:50 MeCN—H2O.

[3] = molecular target: T1, glucocorticoid receptor (GR) (Homo sapiens, UniProt P04150); assay: Glucocorticoid Binding Assay, GR (h) (agonist radioligand); settings: IM9 cytosol, 3H-dexamethasone competitive binding
T1 construct: by mixing 1 mg of IM9 cytosol; host or cells: IM9 human lymphoblast cell cytosol
T1 sequence (P04150 1-777): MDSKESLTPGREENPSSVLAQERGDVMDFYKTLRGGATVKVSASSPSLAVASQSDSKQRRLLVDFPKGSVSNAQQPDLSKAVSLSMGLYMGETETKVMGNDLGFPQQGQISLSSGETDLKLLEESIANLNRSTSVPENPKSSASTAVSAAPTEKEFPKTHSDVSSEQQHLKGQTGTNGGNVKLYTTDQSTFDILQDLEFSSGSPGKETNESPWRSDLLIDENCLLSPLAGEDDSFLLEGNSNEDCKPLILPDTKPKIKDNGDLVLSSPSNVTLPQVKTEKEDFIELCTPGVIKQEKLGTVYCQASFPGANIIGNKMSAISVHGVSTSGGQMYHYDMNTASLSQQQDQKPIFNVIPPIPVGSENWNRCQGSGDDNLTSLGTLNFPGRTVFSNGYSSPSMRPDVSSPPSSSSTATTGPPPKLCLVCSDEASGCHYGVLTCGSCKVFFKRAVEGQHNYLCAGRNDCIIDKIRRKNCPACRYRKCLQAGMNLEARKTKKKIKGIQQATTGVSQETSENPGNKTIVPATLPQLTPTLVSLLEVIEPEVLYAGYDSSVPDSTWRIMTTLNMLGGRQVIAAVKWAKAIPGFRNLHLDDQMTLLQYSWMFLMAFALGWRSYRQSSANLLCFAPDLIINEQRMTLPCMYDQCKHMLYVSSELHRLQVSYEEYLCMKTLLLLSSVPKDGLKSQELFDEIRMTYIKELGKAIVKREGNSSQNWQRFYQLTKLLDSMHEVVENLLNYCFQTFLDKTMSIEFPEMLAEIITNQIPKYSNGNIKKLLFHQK
Protocol: GR (h) (agonist radioligand) assay performed by Eurofins Cerep, France using a method similar to the one described hereinbelow.
The human lymphoblast cell line IM9 is used as a source of the soluble glucocorticoid receptor (GR). The cells are grown to densities of 1 to 10×10^5 cells per milliliter in RPMI 1640 media containing 10% fetal bovine serum, penicillin (100 U/ml), streptomycin (100 μg/ml), and 2 mM L-glutamine at […] and 7% CO2 in a humidified incubator. The IM9 cells are harvested from the media by centrifugation for 10 minutes at 1500 g. Cells are washed in 12 volumes of Dulbecco's phosphate-buffered saline (PBS) and re-pelleted. Washed cells are resuspended in five to six volumes (per volume of packed cells) of homogenization buffer (10 mM TES, 10 mM sodium molybdate, 1 mM EDTA, pH 7.4, 20 mM 2-mercaptoethanol, and 10% glycerol), and the cells are broken by nitrogen cavitation using 2×15 minutes at 600 to 750 psi nitrogen in the N2 cavitator at 0° C. Cell disruption is confirmed by Hoffman contrast microscopy using a Nikon Diaphot. The broken cell preparation is then centrifuged at 27,000 g for 15 minutes, and the resultant supernatant was centrifuged at 103,000 g for 60 minutes at 4° C. The amount of protein in the supernatant fraction is determined using a BCA assay kit with a bovine serum albumin standard. Aliquots of the supernatant fraction are snap frozen in a dry ice-acetone bath and stored at −70° C. Competitive binding assays are done in duplicate in homogenization buffer (total volume of […]) by mixing 1 mg of IM9 cytosol, 0.05/ρCi (3 nM) of ^3H-dexamethasone, and Compounds described herein (10^−5 to 10^−11 M). After incubation at 0° C. for 16 to 18 hours, the assay is stopped by the addition of […] of a charcoal-dextran mixture (2% activated charcoal, 0.5% dextran in 10 mM Tris, 1 mM EDTA, pH 7.4). The assay mixture is further incubated at 0° C. for 10 minutes before being centrifuged for 5 minutes at 8200 g. A 100-μl sample of the supernatant (protein-bound steroid fraction) is assayed for radioactivity by liquid scintillation spectrometry, and the IC50 values were determined graphically.
In some instances, an ester is active in the glucocorticoid binding assay. In some instances, an ester retains activity, such as when attached to a keratolytic agent (or a radical thereof), in the glucocorticoid binding assay.

[4] = rabbit cornea homogenate 0.15 mg/mL total protein, NZW, 37° C.
[5] = rabbit cornea homogenate 0.45 mg/mL total protein, NZW, 37° C.
[6] = rabbit cornea homogenate 0.15 mg/mL total protein, DB, 37° C.
[7] = rabbit cornea homogenate 0.45 mg/mL total protein, DB, 37° C.

Row | SMILES | Esterase (0.15 mg/mL) % parent released after 45 min [2, 4] | Esterase (0.45 mg/mL) % parent released after 45 min [2, 5] | also measured
1 | C[C@]12C=CC(=O)C=C1CC[C@@H]1[C@@H]2[C@@H](O)C[C@@]2(C)[C@H]1CC[C@]2(OC(=O)CCCC[C@@H]1CCSS1)C(=O)OCCl [Compound 59] | – | – | Aqueous Stability (DPBS) T1/2 after t min ([1]; t = 45): 31.6 min; Esterase (0.9 mg/mL) T1/2 (45 min) ([2]; rabbit cornea homogenate 0.9 mg/mL, NZW, 37° C.): 22.6 (NZW) min; Esterase (2.0 mg/mL) T1/2 (45 min) ([2]; rabbit cornea homogenate 2.0 mg/mL, NZW, 37° C.): 21.3 (NZW) min
2 | C=CC(=O)N1C[C@H](Nc2ncnc3c2ccn3C(C)OC(=O)OC(C)C)CC[C@@H]1C (stereo partly drawn) [Compound 22] | D (NZW) (>75%) | D (NZW) (>75%) | –
3 | C[C@]12C=CC(=O)C=C1CC[C@H]1[C@@H]3CC[C@](OC(=O)CCCC[C@@H]4CCSS4)(C(=O)OCCl)[C@@]3(C)C[C@H](O)[C@@]12F | – | – | EC50 [3]: 0.35 nM
4 | CC(=O)N1[C@H](C(=O)O[C@]2(C(=O)O)[C@H](C)C[C@H]3[C@@H]4C[C@H](F)C5=CC(=O)C=C[C@]5(C)[C@@]4(F)[C@@H](O)C[C@@]32C)CSC1(C)C [Chemical Synthesis Example 70, (6S,8S,9R,10S,11S,13S,14S,16R,17R)-17-(((R)-3-Acetyl-2,2-dimethylthiazolidine-4-carbonyl)oxy)-6,9-difluoro-11-hydroxy-10,13,16-trimethyl-3-oxo-6,7,8,9,10,11,12,13,14,15,16,17-dodecahydro-3H-cyclopenta[a]phenanthrene-17-carboxylic acid] | – | – | EC50 [3]: > 100 nM
5 | CC(C)OC(=O)OC(C)n1ccc2c(-c3cnn([C@H](CC#N)C4CCCC4)c3)ncnc21 (stereo partly drawn) [Compound 50] | – | – | Aqueous Stability (DPBS) % parent released after t min ([1]; t = 44): B (t = 44) (25% to 50%); Esterase (0.15 mg/mL) % parent released after 45 min [2, 6]: D (DB) (>75%); Esterase (0.45 mg/mL) % parent released after 45 min [2, 7]: D (DB) (>75%)
6 | C=CC(=O)N1C[C@H](Nc2ncnc3c2ccn3C(=O)OC(C)C)CC[C@@H]1C [Compound 23] | A (NZW) (<25%) | A (NZW) (<25%) | –
7 | CC(C)OC(=O)n1ccc2c(-c3cnn([C@H](CC#N)C4CCCC4)c3)ncnc21 [Compound 51] | – | – | Aqueous Stability (DPBS) % parent released after t min ([1]; t = 45): A (t = 45) (<25%); Esterase (0.15 mg/mL) % parent released after 45 min [2, 6]: A (DB) (<25%); Esterase (0.45 mg/mL) % parent released after 45 min [2, 7]: B (DB) (25% to 50%)
8 | CC(C)C(=O)OC(C)n1ccc2c(-c3cnn([C@H](CC#N)C4CCCC4)c3)ncnc21 (stereo partly drawn) [Compound 48] | A (NZW) (<25%) | A (NZW) (<25%) | –
9 | CC(=O)N[C@@H](CS)C(=O)O[C@]1(C(=O)OCC#N)[C@H](C)C[C@H]2[C@@H]3C[C@H](F)C4=CC(=O)C=C[C@]4(C)[C@@]3(F)[C@@H](O)C[C@@]21C [Compound 73B, Cyanomethyl (6S,8S,9R,10S,11S,13S,14S,16R,17R)-17-((acetyl-L-cysteinyl)oxy)-6,9-difluoro-11-hydroxy-10,13,16-trimethyl-3-oxo-6,7,8,9,10,11,12,13,14,15,16,17dodecahydro-3H-cyclopenta[a]phenanthrene-17-carboxylate] | – | – | Esterase (0.15 mg/mL) % parent released after 45 min ([2]; Table 13, rabbit cornea homogenate 0.15 mg/mL, rabbit breed not given): A (<25%); Esterase (0.45 mg/mL) % parent released after 45 min ([2]; Table 13, rabbit cornea homogenate 0.45 mg/mL, rabbit breed not given): A (<25%)
10 | N#CC[C@@H](C1CCCC1)n1cc(-c2ncnc3c2ccn3COC(=O)CCCC[C@@H]2CCSS2)cn1 [Compound 40] | D (NZW) (>75%) | D (NZW) (>75%) | Aqueous Stability (DPBS) % parent released after t min ([1]; t = 45): A (t = 45) (<25%)
11 | C=CC(=O)N1C[C@H](Nc2ncnc3c2ccn3COC(=O)CCCC[C@@H]2CCSS2)CC[C@@H]1C [Compound 12] | B (NZW) (25% to 50%) | B (NZW) (25% to 50%) | Aqueous Stability (DPBS) % parent released after t min ([1]; t = 44): A (t = 44) (<25%)
12 | CC(OC(=O)CCCC[C@@H]1CCSS1)n1ccc2c(-c3cnn([C@H](CC#N)C4CCCC4)c3)ncnc21 (stereo partly drawn) [Compound 38] | B (NZW) (25% to 50%) | C (NZW) (51% to 75%) | Aqueous Stability (DPBS) % parent released after t min ([1]; t = 48): A (t = 48) (<25%)
13 | CC(C)C(=O)n1ccc2c(-c3cnn([C@H](CC#N)C4CCCC4)c3)ncnc21 [Compound 49] | D NZW) (>75%) | D (NZW) (>75%) | –
14 | CNS(=O)(=O)CC1CCC(N(C)c2ncnc3c2ccn3COC(=O)CCCC[C@@H]2CCSS2)CC1 (stereo partly drawn) [Compound 31] | C (NZW) (51% to 75%) | C (NZW) (51% to 75%) | Aqueous Stability (DPBS) % parent released after t min ([1]; t = 44): A (t = 44) (<25%)
15 | N#CC[C@@H](C1CCCC1)n1cc(-c2ncnc3c2ccn3C(=O)CCCC[C@@H]2CCSS2)cn1 [Compound 39] | B (NZW) (25% to 50%) | C (NZW) (51% to 75%) | Aqueous Stability (DPBS) % parent released after t min ([1]; t = 45): B (t = 45) (25% to 50%)
